Active and inactive are the calls of the source.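 Rule for the calls: active = a tumor-causing dose value with its tumor site reported for any sex and species group of a rodent or other animal cancer study; inconclusive = only studies judged inadequate by the national testing program; inactive = tested in at least one study, none positive.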
experiment: DSSTox (CPDBAS) Carcinogenic Potency Database Summary SingleCellCall Results; settings: animal chronic carcinogenicity bioassays, CPDB summary call
Procedure, shortened: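 Categorical carcinogenicity call compiled from published chronic rodent and other animal cancer bioassays; based on the most positive result across experiments for each sex-species, assigned on minimal evidence for or against activity.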

Structure (SMILES)	outcome
O=C(O)c1cc(O)c(O)c(O)c1	inactive
CCCc1c(OCCCCc2nn[nH]n2)ccc(C(C)=O)c1O	active
Nc1cc([N+](=O)[O-])ccc1O	active
Nc1ccc([N+](=O)[O-])cc1N	inactive; active
CCCCCCCCS(=O)C(C)Cc1ccc2c(c1)OCO2 (configuration not stated)	active
Clc1ccc2c(c1)C(c1ccccc1)=NCc1nncn1-2	inactive; active
CC1(C)C(=O)Nc2ccc(C3=NNC(=O)CC3)cc21	active
FC(F)Cl	inactive
O=C1CN=C(c2ccccc2)c2cc(Cl)ccc2N1CC1CC1	inactive
O=C(O)c1ccccc1-c1c2cc(I)c(=O)c(I)c-2oc2c(I)c(O)c(I)cc12	inactive
CC(C)=NO	active
C=CCc1ccc(OC)cc1	active
ClC(Br)Br	active
Nc1ccc(N)cc1	inactive
CN(C)CCOc1ccc(/C(=C(/CCCl)c2ccccc2)c2ccccc2)cc1	inactive
O=NN1CCCN(N=O)C1	active
C[C@H](CCc1ccccc1)NC[C@H](O)c1ccc(O)c(C(N)=O)c1	inactive
ClCOCc1ccc(COCCl)cc1	active
COc1cc(NC(=O)C(N=Nc2ccc(-c3ccc(N=NC(C(C)=O)C(=O)Nc4cc(OC)c(Cl)cc4OC)c(Cl)c3)cc2Cl)C(C)=O)c(OC)cc1Cl (configuration not stated)	inactive
C=C1C(C)(C)[C@@]2(Cl)C(Cl)[C@]1(Cl)C(Cl)(Cl)C2(Cl)Cl (some centres not stated)	active
O=C1OC(c2ccc(O)cc2)(c2ccc(O)cc2)c2ccccc21	active
C=C(C)[C@H]1CC=C(C)CC1	active
Cc1ccc(C)c(C)c1	active

Structure (SMILES)	outcome
CCCCCN(N=O)C(=O)OCC	active
CNC[C@H](O)c1ccc(O)c(O)c1	inactive
OCCOCCO	active
NCCc1ccc(O)c(O)c1	inactive
O=[O+][O-]	active
CN(CCCC(=O)O)N=O	active
OCc1ccco1	active
O=[N+]([O-])c1ccc2c3c(cccc13)CC2	active
CC(CCl)OC(C)CCl (configuration not stated)	active
CCNC(=O)Nc1ncc([N+](=O)[O-])s1	active
CCC1CO1 (configuration not stated)	active; inactive
Nc1ccc(NC(=O)c2ccc(N)cc2)cc1	inactive; active
CCCC(CCC)C(=O)O	active
C=CC(=O)OCC	active
CCN(CC)c1ccc(N=Nc2cc[n+]([O-])cc2)cc1	active
CCC(C)[N+](=O)[O-] (configuration not stated)	active
CC(Cl)(Cl)Cl	inactive
Nc1ccccc1N	active; inactive
CC(=O)c1ccc(S(=O)(=O)NC(=O)NC2CCCCC2)cc1	inactive
COc1ccc(N)c(C)c1	active
CC[C@]1(O)CC2CN(CCc3c([nH]c4ccccc34)[C@@](C(=O)OC)(c3cc4c(cc3OC)N(C)[C@H]3[C@@](O)(C(=O)OC)[C@H](OC(C)=O)[C@]5(CC)C=CCN6CC[C@]43[C@@H]65)C2)C1 (some centres not stated)	inactive
Oc1ccc(Cl)cc1Cc1ccccc1	active
Clc1ccc(Sc2cc(Cl)c(Cl)cc2Cl)cc1	inactive

Structure (SMILES)	outcome
[S-]c1nc2ccccc2s1.[S-]c1nc2ccccc2s1.[Zn+2]	inactive; active
O=NN1CN2CN(C1)CN(N=O)C2	inactive
CC(C)NCC(O)COc1ccc(CC(N)=O)cc1 (configuration not stated)	inactive; active
S=C=NCc1ccccc1	inactive
O=CNNc1nc(-c2ccc([N+](=O)[O-])o2)cs1	active
OCCN(CCO)C(=S)S	active
[O]=[Nb](=[O])[OH]	inactive
CC1CC(=O)O1 (configuration not stated)	active
Nc1ccc(Nc2ccccc2)cc1	inactive
CCOc1ccc(NC(N)=O)cc1	active
O=P(O)(O)O	inactive; active
CCCCN(N=O)C(N)=O	active
ClCc1cccnc1	active
C=CCc1ccc(OC)c(OC)c1	active; inactive
O=S(=O)(O)c1c(N=Nc2c(O)ccc3ccccc23)ccc2ccccc12	inactive; active
O=C1CCO1	active; inactive
C[C@@H]1C[C@H]2[C@@H]3CCC4=CC(=O)C=C[C@]4(C)[C@@]3(F)[C@@H](O)C[C@]2(C)[C@@]1(O)C(=O)CO	inactive
NCCS(=O)(=O)O	inactive; active
CC[C@H](OC(C)=O)C(C[C@H](C)N(C)C)(c1ccccc1)c1ccccc1	active
[C-]1=CC=CC1.[C-]1=CC=CC1.[Cl-].[Cl-].[Ti+4]	inactive; active
CC(Oc1cc(Cl)ccc1Cl)C(=O)O (configuration not stated)	inactive
